PubChem BioAssay (NCI)
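Assay format: 96-well plates, 48-hour exposure. TGI: total growth inhibition.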 Where a SMILES comes first, the peptide text is derived from it. [ ]: non-standard residue; d: D form. The star is where a group is joined. ξ: configuration not given here. X28 = COC1=CC(=O)N(C(=O)[C@@H](O*)C(C)C)[C@H]1Cc1ccccc1; X37 = O=C(OCc1ccccc1)[C@@H]1CCC[C@H]1N*; Fmoc = O=C(OCC1c2ccccc2-c2ccccc21)*; ξW = NC(Cc1c[nH]c2ccccc12)C(=O)O; NMeL = CN[C@@H](CC(C)C)C(=O)O; ξF = NC(Cc1ccccc1)C(=O)O; Hexanoyl = CCCCCC(=O)*; Boc = CC(C)(C)OC(=O)*; ξK = NCCCCC(N)C(=O)O; ξT = CC(O)C(N)C(=O)O; OBn = c1ccc(CO*)cc1; Bn = c1ccc(C*)cc1; tBu = CC(C)(C)*

What was measured:
Assay in all cases: NCI-60 cell line screen, 48 h
SF-539 CNS = system: SF-539 CNS
NCI-H23 lung = system: NCI-H23 lung
NCI-H522 lung = system: NCI-H522 lung
SK-OV-3 ovarian = system: SK-OV-3 ovarian
UACC-62 melanoma = system: UACC-62 melanoma
NCI/ADR-RES ovarian = system: NCI/ADR-RES ovarian
SK-MEL-2 melanoma = system: SK-MEL-2 melanoma
HL-60(TB) leukemia = system: HL-60(TB) leukemia
ACHN renal = system: ACHN renal
HCC-2998 colon = system: HCC-2998 colon

SMILES	TGI (SF-539 CNS) [µM]	TGI (NCI-H23 lung) [µM]	TGI (NCI-H522 lung) [µM]	TGI (SK-OV-3 ovarian) [µM]	TGI (UACC-62 melanoma) [µM]	TGI (NCI/ADR-RES ovarian) [µM]	TGI (SK-MEL-2 melanoma) [µM]	TGI (HL-60(TB) leukemia) [µM]	TGI (ACHN renal) [µM]	TGI (HCC-2998 colon) [µM]
C[N+](C)(C)CCCCCc1c2nc(c(CCCCC[N+](C)(C)C)c3ccc([nH]3)c(CCCCC[N+](C)(C)C)c3ccc([nH]3)c(CCCCC[N+](C)(C)C)c3nc1C=C3)C=C2	> 100	> 100	> 100	> 100	> 100	> 100	> 100	> 100	> 100	> 100
COc1ccc(OC)c2c1C[C@@H]1C(C#N)N3[C@H](Cc4c(OC)ccc(OC)c4[C@@H]3C)C(=O)N1[C@H]2C (some centres not stated)	5.97	19.6	3.3	29.4	6.52	> 100	5.2	6.18	9.53	14.4
CC1(c2cccc(C3CCC4(C=CC3=O)OCCO4)c2)OCCO1 (configuration not stated)	28.5	24	3.53	> 67.5	18.1	31.5	27.4	20	15.5	33.1
COC(=O)c1c(C)nc(C)c(N=O)c1-c1ccccc1C(F)(F)F	45.8	48.5	18.7	> 100	> 100	44.5	> 100	> 100	> 100	> 100
CCOC(=O)c1cc(-c2ccc(OC)c(OC)c2)cn1C	> 10	> 10	> 10	> 10	> 10	> 10	> 10	> 10	> 10	> 10
CCCCc1ccc(N2C(=O)c3cc(C)cnc3S2(=O)=O)cc1	–	> 100	> 100	> 100	–	> 100	> 100	> 100	> 100	> 100
CC1CCN(c2nnc(Cl)cc2C(=O)c2ccccc2)CC1	77.4	82.4	77.7	–	> 100	> 100	40.8	> 100	> 100	96.6
COc1ccc2c(c1)CC[C@@H]1C2CC[C@]2(C)OC(=O)CCC12 (some centres not stated)	30.4	38.4	19.4	> 100	> 100	33.4	66.5	> 100	> 100	> 100
CC(C)CC(NC(=O)C(Cc1ccccc1)NC(=O)C(COCc1ccccc1)NC(=O)OC(C)(C)C)C(=O)OCc1ccccc1 (stereo not drawn) (Boc-Ser(Bn)-Phe-Leu-OBn; configuration not given here)	72.3	43.2	31.9	> 100	33	> 100	> 100	15.3	33.1	27.8
CC(=O)OCc1ccc(-c2nc(C#N)c(N)o2)o1	> 10	> 10	> 10	> 10	> 10	> 10	–	> 10	> 10	> 10
CC1(C)OC1CC/C(=C/CBr)CBr (configuration not stated)	32.2	29.6	23.5	48.5	–	49.6	29	23.9	30.9	29.8
O=[N+]([O-])c1ccccc1S(=O)(=O)N1CCCc2cc(Cl)ccc21	97.2	> 100	–	> 100	> 100	> 89.1	> 100	72.2	> 100	> 100
CC(OC(C)(C)C)C(NC(=O)C(CCCCNC(=O)OC(C)(C)C)NC(=O)C(Cc1c[nH]c2ccccc12)NC(=O)C(Cc1ccccc1)NC(=O)OCC1c2ccccc2-c2ccccc21)C(=O)NC(Cc1ccccc1)C(=O)N[C@@H]1CCC[C@H]1C(=O)OCc1ccccc1 (some centres not stated) (Fmoc-[ξF][ξW][ξK](Boc)[ξT](tBu)[ξF]-X37)	> 100	> 100	> 100	> 100	> 100	> 100	> 100	> 100	> 100	> 100
c1ccc(COc2nc3ccc(C45CC6CC(CC(C6)C4)C5)cc3[nH]2)cc1	–	> 56.6	13.9	> 100	> 100	> 54.4	52.6	43.7	> 100	56.4
CCC(C#N)N(Cc1cccc(CN(C(C)=O)C(C#N)CC)c1)C(C)=O (configuration not stated)	> 100	> 100	> 100	> 100	> 100	> 100	> 100	> 100	> 100	> 100
CCCCCC(=O)N[C@H](C(=O)N[C@H](C(=O)N(C)[C@@H](CC(C)C)C(=O)N1CCC[C@H]1C(=O)N1CCC[C@H]1C(=O)O[C@H](C(=O)N1C(=O)C=C(OC)[C@@H]1Cc1ccccc1)C(C)C)C(C)C)C(C)C (Hexanoyl-VV[NMeL]PP-X28)	> 100	> 100	> 100	> 100	> 100	> 100	> 100	6.2	> 100	> 100
C#CCNC(Cc1ccccc1)C(=O)O (configuration not stated)	–	> 100	> 100	> 100	> 100	> 100	> 100	> 100	> 100	> 100
